Converted amounts (≈) assume the structure as drawn. Marks after values point to notes of the source that are not given here. Positions of bridges follow the written chain, without caps; N, C: chain ends. Non-standard residues stand in square brackets, D forms with d. Residues, ends and D or L forms follow the SMILES beside them. Chains are numbered I, II in the order given. *: point of attachment. X1 = CC[C@H](C)CCCCC(=O)*; Dab = NCC[C@H](N)C(=O)O
Key:
[1] = test system: E. coli D21 and LPS outer core polysaccharide truncated mutant strains; test: MIC ratio against LPS-truncated E. coli mutants; type: cell-based; conditions: oligosaccharide-truncated mutants vs wild type D21; increase seen against D21e9 lacking outer core polysaccharides
Source text: LPS is a complex glycosylated lipid molecule comprising of a hydrophobic lipid A and core oligosaccharides. The core oligosaccharides are structurally divided into an inner core (lipid A proximal) region and an outer core O-antigen region (Fig. 4a). To ascertain if the alterations in OM polysaccharides modify the barrier penetration and antimicrobial properties of the peptides, we determined the MIC of the peptides against 4 cell-wall defective mutants of E. coli (Fig. 4a). We report the MIC ratio (i.e., MICmut/MICwt) which is the ratio of MIC of peptides/antibiotics against oligosaccharides truncated mutant strains over MIC of wild type (D21) strains. For antibiotics that access intracellular targets through porin pathways or peptides that bind to the lipid A part of the LPS, the MIC ratio is independent of LPS truncation (Fig. 4b). However, antibiotics or peptides which interact with outer or inner core polysaccharides of the LPS are expected to show changes in the MIC ratio.
All the peptide congeners were purchased from M/s. Mimotopes Pty Ltd, Australia. The peptides were used as such and the homogeneity of peptides were confirmed by HPLC. Unless otherwise stated all the chemicals and the antibiotics tested were purchased from Sigma Aldrich (Singapore) Pte Ltd. The florescent probe, BODIPY TR cadaverine (BC) was purchased from Molecular Probes/ Invitrogen (CA, USA). E. coli LPS outer core polysaccharide truncated mutant strains were obtained from CGSG, The Coli Genetic Stock Centre, Yale University, […], USA. Relevant genotype of the strains are, D21 (rfa+); D21e19 (rfa-11) is a deficient mutant in carbohydrates close to the O-antigen part; D21e7 (rfa-1) is deficient in galactose as well as O-antigen; D21f1 (rfa-1, rfa21) lacks phosphate groups in the LPS has glucose and heptose intact; D21f2 (rfa-1, rfa-31) is deficient in heptose of the inner core[57][58].
MIC of each peptide was determined using the microdilution method in a 96 well microtitre plates (SPL Life Sciences Co., Ltd, Korea). Two-fold serial dilutions of each peptide in Mueller-Hinton Broth (MHB) was prepared from a 1 mg/ml stock solution of the peptide in the same broth, to obtain a final concentration in the range of 0.0976–50 μg/ml in each well. Bacterial suspensions (P. aeruginosa ATCC 27853, P. aeruginosa 4877, P. aeruginosa 23155, K. pneumoniae ATCC 10031 and K. pneumoniae 4299) were prepared by suspending the overnight cultured bacteria in saline and adjusting the inoculum to ~10^8 colony forming units (CFU) per ml. A further 150-fold dilution was then prepared in MHB to achieve a final cell density of 10^5–10^6 CFU/ml. In each well, 100 μl of inoculum was mixed with the equal volume of peptides at their 2× concentration. Positive and negative controls contained 200 μl of inoculum (without any peptide) and broth alone (no peptide/inoculum) respectively. Another negative control in which MHB containing 200 μl of peptide alone in its highest concentration tested (50 μg/ml) was also included to ensure that the optical density measured in the test wells was not due to turbidity of the peptides in solution. The 96 well polystyrene plates were then incubated at 37 °C for 24 h and the optical density at 600 nm (OD600) was measured every 30 min continuously using a TECAN microplate reader (TECAN Infinite 200, Austria). All the experiments were performed in two independent duplicates and the MIC was determined as the lowest peptide concentration in which no visible growth was observed.

[2] = test system: K. pneumonia 4299; test: microbe, parasite or virus in culture; type: cell-based, K. pneumoniae; conditions: for MIC: Klebsiella pneumoniae, 4299, individual peptide/antibiotics, read-out: MIC against K. pneumoniae 4299
Summary of the method: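 Peptides two-fold diluted in Mueller-Hinton Broth (0.0976–50 μg/ml final) against 10^5–10^6 CFU/ml inoculum, 37 °C for 24 h with OD600 monitored every 30 min. MIC = lowest concentration with no visible growth; two independent duplicates.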

[3] = test system: P. aeruginosa DR4877/07; type: cell-based; conditions: for Fractional inhibitory concentration of peptide/PMB, combination with Chloarm / Fractional inhibitory concentration of peptide/PMB, combination with Erythro / Fractional inhibitory concentration of peptide/PMB, combination with Levo / Fractional inhibitory concentration of peptide/PMB, combination with Tobra: first number in parenthesis; for Fractional inhibitory concentration of antibiotic, Chloarm combination / Fractional inhibitory concentration of antibiotic, Erythro combination / Fractional inhibitory concentration of antibiotic, Levo combination / Fractional inhibitory concentration of antibiotic, Tobra combination: second number in parenthesis; for Fold decrease in the MIC of antibiotics at sub-lethal/sub-inhibitory concentrations of B2088: multidrug resistant P. aeruginosa 4877; for FICI of B2088-antibiotic combination: lowest FICI reported, two independent duplicates
Summary of the method: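 Checkerboard combinations of peptide and antibiotic, each 2-fold diluted up to 1× MIC in MHB, were tested against ~10^6 CFU/ml final inoculum. Plates were incubated 24 h at 37 °C, with growth read at OD600. FICI was the sum of the combination-to-alone MIC ratios for each agent, and the lowest FICI from duplicate experiments was reported.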

[4] = test system: K. pneumoniae 31158; test: microbe, parasite or virus in culture; type: cell-based; conditions: for MIC: Klebsiella pneumoniae, 31158, individual peptide/antibiotics, read-out: MIC against K. pneumoniae 31158
[5] = test system: A549 cells infected with P. aeruginosa ATCC 9027; test: Intracellular bacterial load in infected A549 cells; type: cell-based; conditions: 24 h; for Intracellular bacterial load: antibiotic alone, gatifloxacin at 2 μg/ml
Protocol: Human lung A549 epithelial cells (ATCC CCL185) were seeded at a density of 10^5 cells/well in a 24 well plate. Next day cells were infected with P. aeroginosa 9027 strains at the multiplicity of infection of 5 for 2 h. Cells were then washed thrice with PBS followed by DMEM to remove the extracellular bacteria. The washed cells were subsequently treated with 200 μg/ml gentamicin to kill any extracellular bacteria. After 1 h cells were washed with PBS again to remove the dead bacteria and the cells were either mixed with antibiotics (Tobramycin or Gatifloxacin) alone or in combination with B2088. After 24 h, the cells were lysed with 0.1% Triton-X100 and the lysates were serially diluted and plated on to a tryptic soy agar (TSA) plates for colony counting.

[6] = MIC of B2088 6.25 μg/ml, MHB, ~10^6 CFU/ml, 37 °C, 24 h

| Structure (SMILES) | MIC ratio (MICmut/MICwt) [1] | Fractional inhibitory concentration of peptide/PMB, combination with Chloarm [3] | Fractional inhibitory concentration of peptide/PMB, combination with Erythro [3] | Fractional inhibitory concentration of peptide/PMB, combination with Levo [3] | Fractional inhibitory concentration of peptide/PMB, combination with Tobra [3] | Fractional inhibitory concentration of antibiotic, Chloarm combination [3] | Fractional inhibitory concentration of antibiotic, Erythro combination [3] | Fractional inhibitory concentration of antibiotic, Levo combination [3] | Fractional inhibitory concentration of antibiotic, Tobra combination [3] | Fold decrease in the MIC of antibiotics at sub-lethal/sub-inhibitory concentrations of B2088 [3] | MIC [2] | MIC [4] | FICI of polymyxin B-antibiotic combination [3] | MIC of antibiotics in the presence of ¼× sub-MIC of B2088 [3, 6] | MIC of antibiotics in the presence of ½× sub-MIC of B2088 [3, 6] | FICI of B2088-antibiotic combination [3] | Intracellular bacterial load [5] | other results |
| --- | --- | --- | --- | --- | --- | --- | --- | --- | --- | --- | --- | --- | --- | --- | --- | --- | --- | --- |
| CC[C@H](C)CCCCC(=O)N[C@@H](CCN)C(=O)N[C@H](C(=O)N[C@@H](CCN)C(=O)N[C@H]1CCNC(=O)[C@H]([C@@H](C)O)NC(=O)[C@H](CCN)NC(=O)[C@H](CCN)NC(=O)[C@H](CC(C)C)NC(=O)[C@@H](Cc2ccccc2)NC(=O)[C@H](CCN)NC1=O)[C@@H](C)O [Polymyxin B, polymyxin B, reference compound] (X1-[Dab]T[Dab][Dab][Dab][dF]L[Dab][Dab]T; lactam 4-C (inferred); N-terminus assumed) | did not show any change | 0.125 | 0.25 | 0.5 | (0.5,0.5) | 0.5 | 0.5 | 0.25 | (0.5,0.5) |  |  |  |  |  |  |  |  | Minimum Inhibitory Concentration against K. pneumonia 4299 ([2]; MHB, 10^5–10^6 CFU/ml, 37 °C, 24 h, two independent duplicates): 1.13 µM; Fractional Inhibitory Concentration Index with Chloarm ([3]; peptide + chloramphenicol): 0.63; Fractional Inhibitory Concentration Index with Erythro ([3]; peptide + erythromycin): 0.75; Fractional Inhibitory Concentration Index with Levo ([3]; peptide + levofloxacin): 0.75; Fractional Inhibitory Concentration Index with Tobra ([3]; peptide + tobramycin): 1.0 |
| CC(C)[C@H](NC(=O)[C@H](CCCCN)NC(=O)[C@H](CCCNC(=N)N)NC(=O)CNC(=O)[C@@H](N)CCCNC(=N)N)C(=O)N[C@H](C(=O)N[C@@H](CCCNC(=N)N)C(=O)N[C@@H](CCCNC(=N)N)C(=O)NCCCC[C@H](NC(=O)[C@H](CCCNC(=N)N)NC(=O)[C@H](CCCNC(=N)N)NC(=O)[C@@H](NC(=O)[C@@H](NC(=O)[C@H](CCCCN)NC(=O)[C@H](CCCNC(=N)N)NC(=O)CNC(=O)[C@@H](N)CCCNC(=N)N)C(C)C)C(C)C)C(=O)N[C@@H](CCCCN)C(=O)O)C(C)C [B2088] (I: H-RGRKVVRRKK-OH / II: H-RGRKVVRR; amide I:9-II:C; N-terminus and C-terminus assumed) | no apparent change | (0.25,0.25) | (0.5,0.5) ^‡ | (0.5,0.5) | (0.25,0.25) | (0.25,0.25) | (0.5,0.5) ^‡ | (0.5,0.5) | (0.25,0.25) | 2-8 fold |  |  |  |  |  |  |  | MIC against K. pneumoniae 4299 ([2]; 24 h): 12.5 µg/mL (≈ 5.46 µM); Minimum Inhibitory Concentration against K. pneumonia 4299 ([2]; 24 h): 2.7 µM; MIC against K. pneumoniae 31158 ([4]; 31158, 24 h): 12.5 µg/mL (≈ 5.46 µM); Intracellular bacterial burden ([5]; B2088 alone at 200 μg/ml): did not decrease the intracellular bacterial burden |
| COc1c(N2CCNC(C)C2)c(F)cc2c(=O)c(C(=O)O)cn(C3CC3)c12 (stereo not drawn) [Gatifloxacin] |  |  |  |  |  |  |  |  |  |  | 1.56 µg/mL (≈ 4.16 µM) | 1.56 µg/mL (≈ 4.16 µM) | 0.63 | 15.6 µg/mL | 7.8 µg/mL | 0.63 | marked decrease in the intracellular bacterial burden | MIC of antibiotics in the presence of ⅛× sub-MIC of B2088 [3, 6]: 15.6 µg/mL |
| NC[C@H]1O[C@H](O[C@H]2[C@H](O)[C@@H](O[C@H]3O[C@H](CO)[C@@H](O)[C@H](N)[C@H]3O)[C@H](N)C[C@@H]2N)[C@H](N)C[C@@H]1O [Tobramycin] | marked increase |  |  |  |  |  |  |  |  | 4 fold | 0.024 µg/mL (≈ 0.0513 µM) | 0.012 µg/mL (≈ 0.0257 µM) | 1.0 | 200 µg/mL | 200 µg/mL | 0.5 | decreased the intracellular bacterial load |  |
